According to article PMC5699024 (Proceedings of the National Academy of Sciences of the …, 2017):
“Also recorded” adds a separate entry of the source.

Columns and labels:
[1] = tested on: AND T cells; test: ICAM-YFP distribution and T cell contact with supported membrane; format: cell-based, mouse; details: 1 h pretreatment
[2] = tested on: AND T cells; test: ZAP70-EGFP recruitment and cell morphology; format: cell-based, mouse; details: for ZAP70 recruitment to plasma membrane / cell morphology: T102S/MHC well below, MCC/MHC above NFAT threshold; for linear ZAP70-EGFP trajectories: ∼5-min window, TIRF
[3] = tested on: 5c.c7 TCR; test: single-molecule pMHC:TCR dwell time in live T cells; format: binding, mouse; details: almost four orders of magnitude of pMHC density
[4] = molecular target: T1, CD28 (Mus musculus, UniProt P31041); test: single-molecule CD80:CD28 binding in AND T cells; details: 3-s time lapse, ∼10 cells, one experiment
T1 sequence (P31041 20-218): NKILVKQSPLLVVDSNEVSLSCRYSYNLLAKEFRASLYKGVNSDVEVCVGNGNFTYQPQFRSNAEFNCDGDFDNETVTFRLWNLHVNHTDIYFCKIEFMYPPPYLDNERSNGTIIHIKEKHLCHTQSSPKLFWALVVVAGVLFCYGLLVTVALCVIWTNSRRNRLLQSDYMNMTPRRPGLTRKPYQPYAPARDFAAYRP

[5] = tested on: AND T cells; test: NFAT translocation assay; format: cell-based, mouse; details: MCC/MHC:AND; unlabeled CD80 on bilayer (200 molecules per micrometer)
[6] = molecular target: CD28; details: CD80:CD28 solution affinity, comparable with pMHC:TCR; ref [25], [32]–[34]; cited from earlier work

Molecule: COC(=O)[C@H](CC(C)C)NC(=O)c1ccc(NC[C@@H](N)CS)cc1-c1cccc2ccccc12 [GGTI-298]
- ICAM-YFP distribution [1]: relatively even ICAM-YFP distribution across the T cell
- probability of T cell landing on supported membrane [1]: decreased the probability of the T cell’s landing on the supported membrane

Molecule: ANERADLIAYLKQASK [T102S]
- ZAP70 recruitment to plasma membrane [2]: low levels
- cell morphology [2]: asymmetric, crawling morphology
- linear ZAP70-EGFP trajectories [2]: asymmetric

Molecule: ANERADLIAYLKQATK [MCC, moth cytochrome c (amino acids 88–103)]
- ZAP70 recruitment to plasma membrane [2]: enhanced ZAP70 recruitment
- cell morphology [2]: stationary, centrosymmetric cell morphology
- linear ZAP70-EGFP trajectories [2]: centrosymmetric
- 〈τoff〉 over pMHC density titration [3]: remains constant

Molecule: CD80: decahistidine-tagged CD80 protein expressed in High Five cells; costimulatory ligand of CD28
- CD80:CD28 〈τoff〉 versus pMHC density [4]: constant as a function of pMHC density; also recorded: constant with respect to pMHC density
- effect of CD80 on NFAT threshold density, MCC [5]: lowers the NFAT threshold density
- solution affinity [6]: low micromolar range
